This is an account of results in patent US20230105212A1, “BIPHENYL DERIVATIVE INHIBITOR, PREPARATION METHOD THEREFOR AND USE THEREOF” (SHANGHAI HANSOH BIOMEDICAL CO., LTD., priority 2020, published 2023).

The subject of assay [1] is CHO-PDL1/Jurkat-PD1 cell pathway. Description: Inhibition of CHO-PDL1/Jurkat-PD1 cell pathway (NFAT luciferase reporter). In kind it is cell-based. The settings on record: for EC50: 6 hours incubation, luciferase signal; for maximal fold induction: relative to the signal value of the non-dosed group, read-out: Maximum induction fold. The procedure:
Test Embodiment 3. Inhibitory Effect of the Compounds of the Present Disclosure on CHO-PDL1/Jurkat-PD1 Cell Pathway
Experimental purpose: The purpose of this test embodiment was to test the inhibitory effect of compounds on the CHO-PDL1/Jurkat-PD1 cell pathway.
Experimental method: Two stably transfected cell lines were included in this experiment, CHO-K1 cells stably transfected with PD-L1 and Jurkat cells stably transfected with PD-1 and NFAT luciferase reporter genes. Compounds were incubated with the two cell lines. Then, due to the inhibitory effect on the PD-1/PD-L1 pathway, the activation degree of Jurkat cells changed, so that the level of the reporter gene NFAT in the downstream of Jurkat cells changed, and the level of NFAT was characterized by detecting the signal value of luciferase, so that the inhibitory effect of the test compound on CHO-PDL1/Jurkat-PD1 pathway was characterized.
CHO-PDL1 cells (Promega, #J1252) were cultured to a suitable cell density. After digestion, the cells were resuspended by complete medium to become a suitable density of cell suspension. The cell suspension was plated 100 μL per well on a 96-well plate (Corning, #3610), and placed in a 37° C., 5% CO2 incubator and incubated overnight, and assay medium (RPMI 1640+2% FBS, RPMI 1640 Cat. No.: Gibco, #22400089, FBS Cat. No.: Gibco, #10091148) was used to prepare compound solutions of different concentrations. NFAT-luc2/PD1 Jurkat cells (Promega, #J1252) were collected and resuspended to the appropriate cell density using assay medium. The supernatant of the CHO-PDL1 cell culture plate was aspirated, and 40 μL of the prepared compound solution and 40 μL of resuspended NFAT-luc2/PD1 Jurkat cells were added, and incubated in a 5% CO2 incubator at 37° C. for 6 hours, and the cell plate was taken out, then 40 μL of One-Glo reagent (Promega, #E6120) was added to each well, shaked and mixed well, incubated in the dark at room temperature for 10 minutes, then put into a microplate reader and the luminescence program was used to read the luminescence value of the cell plate.
The EC50 value was fitted according to the compound concentration and the luminescence signal value, and the maximum induction fold of each compound relative to the signal value of the non-dosed group was calculated, as shown in Table 3.

The target in assay [2] is T1, PD-L1 protein on the surface of MC38-hPDL1 tumor cells (Homo sapiens, UniProt Q9NZQ7).
T1 construct: expressed in transfected cells; host or cells: MC38-hPDL1 (mouse colon cancer cells)
Description: Induction of endocytosis of PD-L1 on the surface of tumor cells (flow cytometry). In kind it is cell-based. The settings on record: 16 hours incubation; for Emax: MC38-hPDL1 cells, read-out: MC38 maximum endocytosis rate; for IC50: inducing endocytosis of PD-L1, MC38-hPDL1 cells, read-out: MC38 IC50. The essentials:
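IC50 comes from nonlinear fits of endocytosis rate, calculated from the loss of surface PE-anti-CD274 flow signal relative to vehicle. Cells were MC38 mouse colon cancer cells engineered to express high human PD-L1. Compound exposure lasted 16 h at 37 °C, 5% CO2.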
On the technique in general: Flow cytometry measures light scatter and fluorescence of single cells or particles in a stream.

For the next assay, the target named is T2, human PD-1/PD-L1 binding (Homo sapiens, UniProt Q9NZQ7).
T2 construct: PD-L1-His protein (19 to 238 amino acids) (Abcam #ab167713); purchased Abcam (PD-L1-His); R&D (PD-1-Fc) ab167713; 1086-PD
Nature of the assay: Inhibition of human PD-1/PD-L1 binding (TR-FRET/HTRF). The settings on record: TR-FRET, PD-L1-His and PD-1-Fc; read-out: PD-1/PD-L1 binding IC50. In outline:
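PD-L1-His (aa 19–238, diluted to 10 nM) and PD-1-Fc (aa 25–167, diluted to 20 nM) incubated with compounds (10 μM or 1 μM top, 3-fold, 11 doses) 60 min at room temperature, then anti-6HIS Eu cryptate/anti-human IgG-XL665 added for 3 h RT or overnight 4 °C. HTRF 665/620 nm ratio gave inhibition and IC50.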

A further assay addresses T3, human PD-L1 protein (Homo sapiens, UniProt Q9NZQ7).
T3 construct: purchased Acro Biosystems PD1-H5229
Description: Thermal shift: melting temperature of PD-L1 protein. In kind it is binding. To be noted: compound 10 μM, PD-L1 protein 2 μM, Tm minus DMSO vehicle control; read-out: ΔTm (° C.). In outline: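 Human PD-L1 at 2 μM final was tested in […], 150 mM NaCl with SYPRO Orange, heated 25→95 °C at 0.03 °C/s in a PCR melt-curve run. Tm was taken per treatment; ΔTm is the shift relative to DMSO vehicle.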

The structures appear in SMILES notation.

T1 sequence (Q9NZQ7 19-290): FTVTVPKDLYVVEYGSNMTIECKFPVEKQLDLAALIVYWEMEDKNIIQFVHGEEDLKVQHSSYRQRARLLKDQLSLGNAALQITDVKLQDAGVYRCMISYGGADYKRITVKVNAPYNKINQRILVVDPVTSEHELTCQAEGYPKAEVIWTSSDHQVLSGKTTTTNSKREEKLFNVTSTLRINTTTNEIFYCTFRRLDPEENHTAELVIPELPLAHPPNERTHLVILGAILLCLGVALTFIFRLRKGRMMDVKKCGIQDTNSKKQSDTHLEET
T2 sequence (Q9NZQ7 19-238): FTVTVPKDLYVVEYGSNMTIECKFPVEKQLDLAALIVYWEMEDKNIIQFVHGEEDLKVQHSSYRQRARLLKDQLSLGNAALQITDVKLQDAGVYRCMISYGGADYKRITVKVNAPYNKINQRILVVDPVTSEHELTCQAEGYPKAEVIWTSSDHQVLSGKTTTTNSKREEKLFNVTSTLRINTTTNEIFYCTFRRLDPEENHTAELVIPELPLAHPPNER
T3 sequence (Q9NZQ7 19-238 limits assumed): as the sequence (Q9NZQ7 19-238) above

Take `COc1nc(-c2cccc(-c3cccc(NC(=O)c4nc5c(n4C4CC4)CCN(C)C5)c3Cl)c2Cl)ccc1CN1CC2(C1)CN(C(C)=O)C2` [Embodiment 243, N-(3′-(5-((6-Acetyl-2,6-diazaspiro[3.3]heptan-2-yl)methyl)-6-methoxypyridin-2-yl)-2,2′-dichloro-[1,1′-biphenyl]-3-yl)-1-cyclopropyl-5-methyl-4,5,6,7-tetrahydro-1H-imidazo[4,5-c]pyridine-2-carboxamide]: in assay [1], a half-maximal effect (EC50) was put at 74 nM and the maximal fold induction was 3.1. Further, in assay [2], the Emax was found to be 91%. The IC50 at human PD-1/PD-L1 binding was 8.4 nM.
As for `COc1cc(C(=O)Nc2cccc(-c3cccc(NC(=O)c4nc5c(n4C)CCN(C)C5)c3Cl)c2C)ncc1CNCCO` [Embodiment 37, N-(2-Chloro-3′-(5-(((2-hydroxyethyl)amino)methyl)-4-methoxypicolinamido)-2′-methyl-[1,1′-biphenyl]-3-yl)-1,5-dimethyl-4,5,6,7-tetrahydro-1H-imidazo[4,5-c]pyridine-2-carboxamide], in assay [1], the EC50 (commonly the concentration giving half of the maximal effect) came to 63 nM and the maximal fold induction came to 4.8. Besides, in assay [2], the Emax was found to be 97% and the IC50 was 0.6 nM. For the same compound, the IC50 at human PD-1/PD-L1 binding was determined as 1.5 nM.
Regarding `COc1cc(C(=O)Nc2cccc(-c3cccc(NC(=O)c4nc5c(n4C)CCN(C)C5)c3Cl)c2C)ncc1CNC1COC1` [Embodiment 36, N-(2-Chloro-3′-(4-methoxy-5-((oxetan-3-ylamino)methyl)picolinamido)-2′-methyl-[1,1′-biphenyl]-3-yl)-1,5-dimethyl-4,5,6,7-tetrahydro-1H-imidazo[4,5-c]pyridine-2-carboxamide], in assay [1], the 50% effective concentration (EC50) is 93 nM and the maximal fold induction came out at 3.1. Further, in assay [2], the Emax was determined as 94% and the IC50 worked out at 3.1 nM. At human PD-1/PD-L1 binding, the IC50 came out at 5 nM.
With `CNC(=O)C1CN(Cc2ccc(-c3cccc(-c4cccc(NC(=O)c5nc6c(n5C)CCN(C)C6)c4Cl)c3Cl)nc2OC)C1` [Embodiment 184, N-(2,2′-Dichloro-3′-(6-methoxy-5-((3-(methylcarbamoyl)azetidin-1-yl)methyl)pyridin-2-yl)-[1,1′-biphenyl]-3-yl)-1,5-dimethyl-4,5,6,7-tetrahydro-1H-imidazo[4,5-c]pyridine-2-carboxamide], in assay [1], a half-maximal response (EC50) required 62 nM and the maximal fold induction came to 2.8. In addition, the Emax in assay [2] came out at 96%. In addition, on human PD-1/PD-L1 binding, the IC50 amounted to 7 nM. Besides, the ΔTm (in general, the shift of the melting midpoint relative to a reference) at 10 µM on human PD-L1 protein stood at 16.7 °C.
As to `COc1cc(-c2cccc(-c3cccc(NC(=O)c4nc5c(n4C)CCN(C)C5)c3Cl)c2C)ncc1CNC[C@@H]1CCC(=O)N1` [Embodiment 58, (S)—N-(2-Chloro-3′-(4-methoxy-5-((((5-carbonylpyrrolidin-2-yl)methyl)amino)methyl)pyridin-2-yl)-2′-methyl-[1,1′-biphenyl]-3-yl)-1,5-dimethyl-4,5,6,7-tetrahydro-1H-imidazo[4,5-c]pyridine-2-carboxamide], in assay [1], the EC50 is 99 nM and the maximal fold induction came out at 3.5. Moreover, in assay [2], the Emax amounted to 94% and the IC50 turned out to be 5.1 nM. The IC50 at human PD-1/PD-L1 binding worked out at 1.5 nM.
In assay [1], `COc1nc(-c2cccc(-c3cccc(NC(=O)c4nc5c(n4C)CCN(C)C5)c3Cl)c2Cl)ccc1CN1CC(CNC(C)=O)C1` [Embodiment 181, N-(3′-(5-((3-(Acetylaminomethyl)azetidin-1-yl)methyl)-6-methoxypyridin-2-yl)-2,2′-dichloro-[1,1′-biphenyl]-3-yl)-1,5-dimethyl-4,5,6,7-tetrahydro-1H-imidazo[4,5-c]pyridine-2-carboxamide] gave an EC50 of 59 nM. In addition, in assay [2], the Emax is 97%. Moreover, the IC50 at human PD-1/PD-L1 binding is 3.4 nM. For the same compound, on human PD-L1 protein, the shift in melting temperature (ΔTm) at 10 µM was 15 °C.
Turning to `COc1nc(-c2cccc(-c3cccc(NC(=O)c4nc5c(n4C)CCN(C)C5)c3Cl)c2Cl)ccc1CN1CCC2(CC1)CN(C(C)=O)C2` [Embodiment 197, N-(3′-(5-((2-Acetyl-2,7-diazaspiro[3.5]nonan-7-yl)methyl)-6-methoxypyridin-2-yl)-2,2′-dichloro-[1,1′-biphenyl]-3-yl)-1,5-dimethyl-4,5,6,7-tetrahydro-1H-imidazo[4,5-c]pyridine-2-carboxamide], in assay [1], the EC50 was 67 nM and the maximal fold induction was found to be 3.5. Besides, in assay [2], the Emax is 93%. Moreover, at human PD-1/PD-L1 binding, the IC50 turned out to be 4.3 nM. On human PD-L1 protein, the ΔTm at 10 µM is 16 °C.
For `COc1nc(-c2cccc(-c3cccc(NC(=O)c4nc5c(n4C)CCN(C)C5)c3Cl)c2Cl)ccc1CN1CC2(CCN(C(C)=O)C2)C1` [Embodiment 195, N-(3′-(5-((6-Acetyl-2,6-diazaspiro[3.4]octan-2-yl)methyl)-6-methoxypyridin-2-yl)-2,2′-dichloro-[1,1′-biphenyl]-3-yl)-1,5-dimethyl-4,5,6,7-tetrahydro-1H-imidazo[4,5-c]pyridine-2-carboxamide], in that order: 89 nM, 3.6, 96%, 3.6 nM and 14.5 °C.
For `COc1cc(C(=O)Nc2cccc(-c3cccc(NC(=O)c4nc5c(n4C)CCN(C)C5)c3Cl)c2C)ncc1CNCCNC(C)=O` [Embodiment 40, N-(3′-(5-(((2-Acetylaminoethyl)amino)methyl)-4-methoxypicolinamido)-2-chloro-2′-methyl-[1,1′-biphenyl]-3-yl)-1,5-dimethyl-4,5,6,7-tetrahydro-1H-imidazo[4,5-c]pyridine-2-carboxamide], in assay [1], the EC50 turned out to be 75 nM and the maximal fold induction stood at 4. Besides, in assay [2], the Emax was 97% and the IC50 is 1.4 nM. Moreover, the IC50 on human PD-1/PD-L1 binding came out at 2 nM.
As for `COc1nc(-c2cccc(-c3cccc(NC(=O)c4nc5c(n4C)CCN(C)C5)c3Cl)c2Cl)ccc1CN1CC2(CN(C=O)C2)C1` [Embodiment 193, N-(2,2′-Dichloro-3′-(5-((6-formyl-2,6-diazaspiro[3.3]heptan-2-yl)methyl)-6-methoxypyridin-2-yl)-[1,1′-biphenyl]-3-yl)-1,5-dimethyl-4,5,6,7-tetrahydro-1H-imidazo[4,5-c]pyridine-2-carboxamide], in assay [1], it took 84 nM to reach a half-maximal effect (EC50) and the maximal fold induction came to 2.8. For the same compound, the Emax in assay [2] is 96%. The IC50 on human PD-1/PD-L1 binding worked out at 6.4 nM. Moreover, the ΔTm at 10 µM on human PD-L1 protein worked out at 12.3 °C.
Regarding `COc1cc(C(=O)Nc2cccc(-c3cccc(NC(=O)c4nc5c(n4C)CCN(C)C5)c3Cl)c2C)ncc1CNCC(C)O` (stereo in doubt) [Embodiment 38, (S)—N-(2-Chloro-3′-(5-(((2-hydroxypropyl)amino)methyl)-4-methoxypicolinamido)-2′-methyl-[1,1′-biphenyl]-3-yl)-1,5-dimethyl-4,5,6,7-tetrahydro-1H-imidazo[4,5-c]pyridine-2-carboxamide], in assay [1], the EC50 was found to be 46 nM and the maximal fold induction was 3.7. In addition, in assay [2], the Emax was found to be 96% and the IC50 is 0.6 nM. Besides, at human PD-1/PD-L1 binding, the IC50 worked out at 2.8 nM.
